According to patent US20190247353A1, “ACNE STRAIN-SELECTIVE ANTIBACTERIAL AGENT” (MOMOTANI JUNTENKAN CO., LTD., priority 2016, published 2019):
Values after ≈ are worked out from the molar mass of the structure shown. Like-named read-outs stand apart in the source and are kept apart here.

Tests used:
Format in all cases: cell-based, Propionibacterium acnes
HL056PA1 strain (RT4) = experiment: MIC by broth microdilution method, HL056PA1 strain; conditions: Cutibacterium acnes, PA1; Example 6, method as Example 1; read-out: MIC against acne bacterium strain HL056 PA1 strain (RT4)
Experimental: (§1) The antibacterial activity of a test substance was determined based on the minimum inhibitory concentration (MIC). An MIC was measured according to the broth microdilution method which is the standard method of Japanese Society of Chemotherapy.
(§2) Each of strain suspensions (5.0×10^4 cfu/mL) was aliquoted in a 96-well round bottom microplate, each of the test substance (fatty acid concentration 10,000 μg/mL) was added at a 1/10 volume to the aliquot and mixed to prepare measurement samples (fatty acid concentration: 1,000 μg/mL). Measurement samples in 2-fold dilution series were prepared using the strain suspension (fatty acid concentration from 0.48 to 1,000 μg/mL). Using a sample containing only the solvent (DMSO) as a control, it was confirmed that the influence of the solvent on the growth of each strain could be neglected.
(§3) The measurement samples were incubated under an anaerobic condition at 37° C. for 2 days. The presence or absence of a precipitation of test microbial cells after the incubation was examined and the minimum concentration at which the precipitation of microbial cells […] was regarded as the MIC (μg/mL) of the test substance against the acne bacterium strain.
The MIC of each of the following test substances was measured substantially in the same manner as in Example 1 (Table 12) except that a suspension of test bacterium strains was prepared using the dominant strain in acne patients (HL005PA1 strain (HM-492^†, RT4 strain), […] (HM-524^†, RT4 strain), HL045PA1 strain (HM-516^†, RT4 strain), or HL043PA2 strain (HM-514^†, RT5 strain)), or the dominant strain in healthy subjects (HL110PA4 strain (HM-555^†, RT6 strain) instead of the dominant strains in acne patients (HL053PA1 strain (RT4 strain) and HL043PA1 strain (RT5 strain)) and the dominant strain in healthy subjects (HL110PA3 strain (RT6 strain) used in Examples 1 to 3.

HL110PA3 strain (RT6) = experiment: MIC by broth microdilution method, HL110PA3 strain; conditions: Cutibacterium acnes, read-out: MIC against acne bacterium strain HL110PA3 strain (RT6)
Experimental: (§4) An MIC is measured herein according to the broth microdilution method which is the standard method of Japanese Society of Chemotherapy.
as §1
(§5) One-loopful of each acne bacterium strain listed in Table 1 was scraped off and inoculated into 5 mL of a GAM broth slant agar medium (pH 7.0, Nissui Pharmaceutical Co., Ltd.).
(§6) The inoculated acne bacterium strain was precultured at 37° C. in a nitrogen atmosphere (anaerobic condition) for 48 hours. The precultured microbial cells were diluted in a modified GAM broth liquid medium (pH 6.0) to a concentration of 5.0×10^4 cfu/mL (viable cell count per OD660=1 is 2.0×10^9 cfu/mL), to prepare strain suspensions.
(§7) Each fatty acid (Tokyo Chemical Industry Co., Ltd.) listed in Table 2 was dissolved in dimethylsulfoxide (DMSO) as a solvent such that the concentration became 10,000 μg/mL, and used as a test substance.
as §2, with “μg/mL).” for “μg/mL). Using a sample containing only the solvent (DMSO) as a control, it was confirmed that the influence of the solvent on the growth of each strain could be neglected.”
(§8) […] The presence or absence of a precipitation of test microbial cells after the incubation was examined and the minimum concentration at which the precipitation of microbial cells […] was regarded as the MIC (μg/mL) of the test substance against the acne bacterium strain.

HL053PA1 strain (RT4) = experiment: MIC by broth microdilution method, HL053PA1 strain; conditions: for MIC: Cutibacterium acnes, read-out: MIC against acne bacterium strain HL053PA1 strain (RT4)
Experimental: as §4, §1, §5, §6, §7
as §2, with “μg/mL).” for “μg/mL). Using a sample containing only the solvent (DMSO) as a control, it was confirmed that the influence of the solvent on the growth of each strain could be neglected.”
as §8

[1] = system: HL053PA1 strain (RT4 strain); experiment: Time course of viable cell count, HL053PA1 strain; conditions: 15 μg/mL, pH 6.0, anaerobic 37° C., 0 to 44 hours (FIG. 1a)
Experimental: (§9) To each strain suspension (pH 6.0, 5.0×10^5 cfu/mL) of the acne bacterium strain (HL053PA1 strain (RT4 strain), HL043PA1 strain (RT5 strain), and HL110PA3 strain (RT6 strain)) prepared in the same manner as in Example 1, pentadecanoic acid (C15:0) was added to mix together (final concentration of a fatty acid of 15 μg/mL, and final concentration of solvent DMSO of 0.5%), and each the mixture was statically cultured at 37° C. in a nitrogen atmosphere (anaerobic condition). Using a sample to which only DMSO was added at 0.5% (final concentration) as a control, it was confirmed that the influence of the solvent on the growth of each strain could be neglected.
(§10) The viable cell count in the culture solution was measured at 0, 2, 8, 18, 30 and 44 hours after the start of culturing. A viable cell count (cfu/mL) was calculated from the number of emerged colonies after culturing part of the culture solution on a GAM broth agar plate under anaerobic conditions for 3 days (FIG. 1).

[2] = system: HL043PA1 strain (RT5 strain); experiment: Time course of viable cell count, HL043PA1 strain; conditions: 15 μg/mL, pH 6.0, anaerobic 37° C., 0 to 44 hours (FIG. 1b)
Experimental: as §9, §10

[3] = system: dominant strain in acne patients (RT4 strain and/or RT5 strain); experiment: MIC against dominant strain in acne patients; conditions: Cutibacterium acnes, in the pH range tested in the Examples
Experimental: as §1, §2, §3

[4] = 48 h, pH 6.0 modified GAM broth, anaerobic, 37° C., 2 days (Example 1)
[5] = 72 h, pH 5.5, estimated from the growth on day 3
[6] = 96 h, pH 5.0, estimated from the growth on day 4
[7] = 72 h, pH 5.0, estimated from the growth on day 3
[8] = pH 5.0, estimated from the growth on day 3

Compound | MIC (HL056PA1 strain (RT4)) | MIC (HL110PA3 strain (RT6); [4]) | MIC (HL110PA3 strain (RT6); [5]) | MIC (HL110PA3 strain (RT6); [6]) | MIC (HL110PA3 strain (RT6); pH 6.5) | MIC (HL110PA3 strain (RT6); pH 7.0) | MIC (HL053PA1 strain (RT4); [4]) | MIC (HL053PA1 strain (RT4); [7]) | MIC (HL053PA1 strain (RT4); pH 5.5) | MIC (HL053PA1 strain (RT4); pH 6.5) | MIC (HL053PA1 strain (RT4); pH 7.0) | MIC against acne bacterium strain HL053PA1 strain (RT4) (HL053PA1 strain (RT4); [8]) | Growth of the HL053PA1 strain (RT4 strain), viable cell count time course [1] | Growth of the HL043PA1 strain (RT5 strain), viable cell count time course [2] | MIC [3]
CCCCCCCCCCCCCCCC(=O)O [Palmitic acid (C16:0), Palmitic acid] | 500 µg/mL (≈ 1950 µM) | > 1000 µg/mL | > 1000 µg/mL | > 1000 µg/mL | > 1000 µg/mL | 1000 µg/mL (≈ 3900 µM) | 7.81 µg/mL (≈ 30.5 µM) | > 1000 µg/mL | 62.5 µg/mL (≈ 244 µM) | 125 µg/mL (≈ 487 µM) | 62.5 µg/mL (≈ 244 µM) | >1000 µg/mL | – | – | –
CCCCCCCCCCCCCCC(=O)O [Pentadecanoic acid (C15:0), Pentadecanoic acid] | 3.9 µg/mL (≈ 16.1 µM) | 250 µg/mL (≈ 1030 µM) | > 1000 µg/mL | > 1000 µg/mL | 250 µg/mL (≈ 1030 µM) | 1000 µg/mL (≈ 4130 µM) | 1.95 µg/mL (≈ 8.04 µM) | 7.81 µg/mL (≈ 32.2 µM) | 3.9 µg/mL (≈ 16.1 µM) | 3.9 µg/mL (≈ 16.1 µM) | 3.9 µg/mL (≈ 16.1 µM) | – | bacteriostatically suppressed | suppressed first bacteriostatically and then bactericidally after 10 hours from the start of culturing | –
CCCCCCCCCCCCCC(=O)O [Myristic acid (C14:0), Myristic acid] | 125 µg/mL (≈ 547 µM) | 250 µg/mL (≈ 1090 µM) | > 1000 µg/mL | > 1000 µg/mL | 250 µg/mL (≈ 1090 µM) | 500 µg/mL (≈ 2190 µM) | 15.6 µg/mL (≈ 68.3 µM) | 15.6 µg/mL (≈ 68.3 µM) | 15.6 µg/mL (≈ 68.3 µM) | 125 µg/mL (≈ 547 µM) | 250 µg/mL (≈ 1090 µM) | – | – | – | –
CCCCCCCCCCCCCCCCC(=O)O [Heptadecanoic acid (C17:0), Heptadecanoic acid] | 250 µg/mL (≈ 924 µM) | > 1000 µg/mL | > 1000 µg/mL | > 1000 µg/mL | > 1000 µg/mL | 1000 µg/mL (≈ 3700 µM) | 7.81 µg/mL (≈ 28.9 µM) | > 1000 µg/mL | 15.6 µg/mL (≈ 57.7 µM) | 31.3 µg/mL (≈ 116 µM) | 62.5 µg/mL (≈ 231 µM) | >1000 µg/mL | – | – | ≤ 62.5 µg/mL
